# ± gives the standard deviation of the averaged measurements.
# Legend:
# [1] = compound: C[C@]12CC[C@H](O)CC1=CC[C@@H]1[C@@H]2CC[C@]2(C)C(c3cccnc3)=CC[C@@H]12 [ABIRATERONE]; experiment: surviving fraction relative to DMSO-only wells; higher = less growth inhibition; conditions: exposure time: 5 days
# How it was run: (§1)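 Luminescence normalised to the median of DMSO-only wells defines surviving fraction, with viability read by CellTiter-Glo. Signal was recorded after 10 minutes at room temperature, once log-phase tumour cell lines seeded at 250–500 cells per well in 384-well plates had spent 24 hours settling and then five days under continuous exposure to inhibitors at 0.5, 1, 5, 10, 50, 100, 500 and 1000 nM.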
# [2] = compound: CCn1c(C(=O)N(C2CC2)C2CC2)cc2c3c(ncn3C)c(Nc3cc(C)n(C)n3)nc21; experiment: as above; conditions: exposure time: 5 days
# How it was run: as §1
Test System,surviving fraction ([1]; 0.5 nM),surviving fraction ([1]; 1 nM),surviving fraction ([1]; 5 nM),surviving fraction ([1]; 10 nM),surviving fraction ([1]; 50 nM),surviving fraction ([1]; 100 nM),surviving fraction ([1]; 500 nM),surviving fraction ([1]; 1000 nM),surviving fraction ([2]; 0.5 nM),surviving fraction ([2]; 1 nM),surviving fraction ([2]; 5 nM),surviving fraction ([2]; 10 nM),surviving fraction ([2]; 50 nM),surviving fraction ([2]; 100 nM),surviving fraction ([2]; 500 nM),surviving fraction ([2]; 1000 nM)
HUO3N1 BONE,1.03 ± 0.019,1.0307 ± 0.00058,1.07 ± 0.049,1.11 ± 0.025,1.07 ± 0.035,1.11 ± 0.029,1.02 ± 0.012,0.995 ± 0.046,0.9853 ± 0.0075,0.999 ± 0.029,1.05 ± 0.057,1.03 ± 0.048,1.07 ± 0.021,1 ± 0.048,0.967 ± 0.038,0.868 ± 0.013
NCIH441 LUNG,1.04 ± 0.067,1.02 ± 0.12,1.08 ± 0.14,1.01 ± 0.077,1.1 ± 0.065,1.05 ± 0.11,1.01 ± 0.046,0.948 ± 0.051,0.92 ± 0.068,0.97 ± 0.033,1.03 ± 0.033,1.01 ± 0.13,0.952 ± 0.063,1.04 ± 0.037,1.06 ± 0.068,1.04 ± 0.017
ASKA SYNOVIAL,1.19 ± 0.076,1.19 ± 0.11,1.23 ± 0.076,1.11 ± 0.11,1.2 ± 0.059,1.28 ± 0.069,1.19 ± 0.099,1.04 ± 0.1,1.06 ± 0.071,0.998 ± 0.1,1.06 ± 0.064,1.05 ± 0.062,1.15 ± 0.092,1.11 ± 0.063,1.07 ± 0.057,0.953 ± 0.051
PCI30 HEADNECK,1.12 ± 0.065,1.03 ± 0.091,1.11 ± 0.018,1.12 ± 0.068,1.18 ± 0.071,1.04 ± 0.013,1.04 ± 0.11,1.03 ± 0.065,0.872 ± 0.024,0.74 ± 0.04,0.98 ± 0.05,1 ± 0.073,0.991 ± 0.065,1.01 ± 0.026,0.964 ± 0.013,0.895 ± 0.049
T47D BREAST,1.04 ± 0.048,1.08 ± 0.031,1.05 ± 0.018,1.08 ± 0.063,1.18 ± 0.068,1.14 ± 0.022,1.1 ± 0.069,1.13 ± 0.051,1.02 ± 0.045,0.994 ± 0.066,1 ± 0.026,0.955 ± 0.024,1.04 ± 0.02,1.05 ± 0.014,1.04 ± 0.067,1.04 ± 0.006
HCT15 LARGE INTESTINE,1.08 ± 0.027,1.12 ± 0.024,1.1 ± 0.054,1.1 ± 0.029,1.11 ± 0.026,1.1 ± 0.0051,1.11 ± 0.04,1.1 ± 0.036,0.987 ± 0.032,0.972 ± 0.011,0.944 ± 0.021,0.986 ± 0.011,1.05 ± 0.043,1.05 ± 0.031,1.06 ± 0.018,1.06 ± 0.03
HCC1954 BREAST,0.838 ± 0.082,1.01 ± 0.13,1.05 ± 0.088,1.13 ± 0.12,1.09 ± 0.23,1.12 ± 0.041,1.08 ± 0.086,1.02 ± 0.014,0.868 ± 0.014,0.837 ± 0.18,0.999 ± 0.22,0.932 ± 0.18,0.92 ± 0.028,0.896 ± 0.013,0.764 ± 0.065,0.921 ± 0.085
HSSYII SYNOVIAL,0.989 ± 0.03,0.972 ± 0.034,0.937 ± 0.013,0.974 ± 0.027,0.983 ± 0.068,0.966 ± 0.023,0.962 ± 0.048,0.957 ± 0.042,0.918 ± 0.058,0.908 ± 0.022,0.905 ± 0.061,0.901 ± 0.022,0.937 ± 0.025,0.926 ± 0.027,0.926 ± 0.049,0.887 ± 0.039
MFM223 BREAST,1.19 ± 0.033,1.1 ± 0.08,1.17 ± 0.031,1.14 ± 0.099,1.22 ± 0.029,1.22 ± 0.015,1.2 ± 0.1,1.1 ± 0.1,1.07 ± 0.076,1.02 ± 0.056,1.03 ± 0.047,1.04 ± 0.053,1.1 ± 0.087,1.18 ± 0.075,1.17 ± 0.092,1.15 ± 0.089
MDAMB468 BREAST,0.965 ± 0.013,1.04 ± 0.034,0.997 ± 0.079,1.07 ± 0.052,1.18 ± 0.13,1.12 ± 0.053,1.05 ± 0.11,0.961 ± 0.09,0.984 ± 0.047,1.02 ± 0.059,1.05 ± 0.067,1.06 ± 0.09,1.05 ± 0.039,1.05 ± 0.074,0.985 ± 0.046,1.03 ± 0.095
CHLA90 AUTONOMIC GANGLIA,1.01 ± 0.064,1.07 ± 0.043,1.06 ± 0.023,1.05 ± 0.044,1.05 ± 0.052,0.993 ± 0.096,1.08 ± 0.017,1.09 ± 0.05,0.986 ± 0.026,0.944 ± 0.037,0.905 ± 0.032,0.918 ± 0.095,0.961 ± 0.011,0.975 ± 0.003,0.945 ± 0.065,0.968 ± 0.026
HCC78 LUNG,0.94 ± 0.12,0.911 ± 0.058,1.09 ± 0.15,1.06 ± 0.23,1.12 ± 0.16,1.15 ± 0.25,0.936 ± 0.063,0.823 ± 0.24,0.942 ± 0.17,0.672 ± 0.3,0.745 ± 0.26,0.888 ± 0.17,0.774 ± 0.21,0.914 ± 0.089,0.707 ± 0.16,0.834 ± 0.2
HT1080 SOFT TISSUE,1.01 ± 0.013,1.05 ± 0.015,1.03 ± 0.012,1.02 ± 0.017,1.01 ± 0.023,1.02 ± 0.02,1.04 ± 0.027,0.997 ± 0.019,1.01 ± 0.04,0.993 ± 0.015,1.004 ± 0.0098,1.039 ± 0.002,0.965 ± 0.023,1.01 ± 0.036,0.997 ± 0.036,0.969 ± 0.011
